Drawing on patent US4374249A, “[4R]-3-(ω-Aroylpropionyl)-4-thiazolidinecarboxylic acids and esters” (American Cyanamid Company, priority 1980, dated 1983), this text covers IC50 for three compounds.

For the assay, the target named is T1, angiotensin converting enzyme (ACE) (Oryctolagus cuniculus, UniProt P12822).
T1 construct: The ACE was extracted from rabbit lung acetane powder; tissue Pel-Freez, Biol. Inc; host or cells: rabbit lung acetone powder, 40,000 g supernatant used as crude extract
T1 sequence (P12822 34-1310): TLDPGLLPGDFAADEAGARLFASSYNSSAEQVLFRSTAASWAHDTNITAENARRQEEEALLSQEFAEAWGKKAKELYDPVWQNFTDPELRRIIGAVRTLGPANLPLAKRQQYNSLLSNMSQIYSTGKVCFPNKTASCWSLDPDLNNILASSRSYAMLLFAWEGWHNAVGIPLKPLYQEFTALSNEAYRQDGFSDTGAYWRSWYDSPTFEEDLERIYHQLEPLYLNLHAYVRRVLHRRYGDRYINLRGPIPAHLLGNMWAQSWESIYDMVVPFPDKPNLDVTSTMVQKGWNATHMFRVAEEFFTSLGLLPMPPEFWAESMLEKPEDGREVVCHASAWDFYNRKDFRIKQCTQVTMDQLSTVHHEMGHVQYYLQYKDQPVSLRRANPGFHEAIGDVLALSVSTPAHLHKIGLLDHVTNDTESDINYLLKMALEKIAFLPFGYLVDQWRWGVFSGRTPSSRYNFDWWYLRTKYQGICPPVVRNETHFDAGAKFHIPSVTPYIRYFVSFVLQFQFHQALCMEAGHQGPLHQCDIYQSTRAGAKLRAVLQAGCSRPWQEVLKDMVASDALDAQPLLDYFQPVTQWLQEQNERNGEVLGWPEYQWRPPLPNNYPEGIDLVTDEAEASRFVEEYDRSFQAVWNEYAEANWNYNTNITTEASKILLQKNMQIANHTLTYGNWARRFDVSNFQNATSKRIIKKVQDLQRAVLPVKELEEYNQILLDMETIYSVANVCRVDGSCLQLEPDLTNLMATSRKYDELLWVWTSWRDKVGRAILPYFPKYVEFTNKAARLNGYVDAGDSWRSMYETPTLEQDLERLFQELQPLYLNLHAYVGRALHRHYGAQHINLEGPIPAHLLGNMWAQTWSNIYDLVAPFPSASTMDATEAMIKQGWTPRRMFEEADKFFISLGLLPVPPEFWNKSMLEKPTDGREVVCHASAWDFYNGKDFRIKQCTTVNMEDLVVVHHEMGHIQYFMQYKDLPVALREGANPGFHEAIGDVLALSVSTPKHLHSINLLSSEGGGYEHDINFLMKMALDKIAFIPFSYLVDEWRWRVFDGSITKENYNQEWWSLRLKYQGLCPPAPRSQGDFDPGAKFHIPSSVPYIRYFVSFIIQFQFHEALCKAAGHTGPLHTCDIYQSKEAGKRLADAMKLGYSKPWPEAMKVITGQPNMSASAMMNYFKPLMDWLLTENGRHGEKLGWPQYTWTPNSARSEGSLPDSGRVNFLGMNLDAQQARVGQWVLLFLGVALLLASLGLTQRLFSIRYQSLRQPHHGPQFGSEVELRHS
Description: Spectrophotometric Assay for Angiotensin Converting Enzyme Inhibitors (in vitro inhibition of ACE, benzoyl-glycyl-histidyl-leucine substrate). It is filed as biochemical. The settings on record: crude ACE extract from rabbit lung; 30 minutes at 37° C.; hippuric acid absorbance at 228 nm. On the procedure:
Spectrophotometric Assay for Angiotensin Converting Enzyme Inhibitors
The in vitro activity for inhibition of the angiotensin converting enzyme (ACE) was measured by the method of Cushman, D. W. and Cheung, H. S., Biochem. Pharmacol., 20, 1637-1648 (1971), using benzoyl-glycyl-histidyl-leucine as the substrate. The reaction mixture consisted of 50 μl. of potassium phosphate (500 mM., […]), 30 μl. of sodium chloride (2500 mM.), 25 μl. of substrate (50 mM.), 30 to 50 μl. of the crude extract of ACE, 10 μl. of test compound (2.5 mM.) or vehicle and a suitable amount of distilled water to give a total volume of 250 μl. This reaction mixture was incubated for 30 minutes at 37° C. and the reaction was then terminated by the addition of 250 μl. of 1 N hydrochloric acid. The hippuric acid was then extracted with 1.5 ml. of ethyl acetate by vortex mixing for 15 seconds. After centrifugation, one ml. of the ethyl acetate layer was pipetted into a new tube and evaporated to dryness. The extracted hippuric acid was then dissolved in one ml. of water and the amount of this acid was then measured by its absorbance at 228 nm. The ACE was extracted from rabbit lung acetane powder (Pel-Freez, Biol. Inc.) by blending 5 g. of the powder in 50 ml. of phosphate buffer (50 mM., pH 8.3) and then centrifuging at 40,000 g for 40 minutes. The supernatant was then kept at 5° C. and used as the enzyme source. The activity of the ACE inhibitor was calculated as the percent inhibition of ACE activity compared to the control value of that particular assay. A full dose-response inhibitory curve is then performed to determine the IC50 value which may be defined as the molar concentration of a compound that will inhibit ACE activity by 50%.
`CC(=O)SC(C(=O)c1ccccc1)[C@@H](C)C(=O)N1CSC[C@H]1C(=O)O` (stereo partly drawn) [[4R-(4R*,2'S*)]-3-(3-Acetylthio-3-benzoyl-2-methylpropionyl)-4-thiazolidinecarboxylic acid] registered an IC50 of 0.067 µM.

`CC(=O)SC(CC(=O)N1CSC[C@H]1C(=O)OCc1c(C)cc(C)cc1C)C(=O)c1ccc(F)cc1` (stereo partly drawn) [[4R]-3-[3-Acetylthio-3-(4-fluorobenzoyl)propionyl]-4-thiazolidinecarboxylicacid, 2,4,6-trimethylbenzyl ester] had a half-maximal inhibitory concentration (IC50) of 16.8 µM.

As to `CC(=O)SC(CC(=O)c1ccccc1)C(=O)N1CSC[C@H]1C(=O)O` (stereo partly drawn) [[4R]-3-(2-Acetylthio-3-benzoylpropionyl)-4-thiazolidinecarboxylic acid], the IC50 was 8.4 µM.
